Results as given in US10676465B2, “GLP-1 receptor agonists and uses thereof” (Pfizer Inc., priority 2018, dated 2020).
Where two headings read alike, the source gives them in different places.

How the values were obtained:
human GLP-1R [1] = target: human GLP-1R (Homo sapiens, UniProt P43220, G168S); assay: CHO GLP-1R Clone H6 - Assay 1 (HTRF cAMP agonist assay); format: cell-based; conditions: for EC50: CHO GLP-1R Clone H6, cAMP HTRF, geometric mean; for Emax: CHO GLP-1R Clone H6, arithmetic mean, relative to saturating GLP-1 (1 μM)
Chain of human GLP-1R (Homo sapiens, UniProt P43220, G168S) (P43220 24-463 G168S limits assumed): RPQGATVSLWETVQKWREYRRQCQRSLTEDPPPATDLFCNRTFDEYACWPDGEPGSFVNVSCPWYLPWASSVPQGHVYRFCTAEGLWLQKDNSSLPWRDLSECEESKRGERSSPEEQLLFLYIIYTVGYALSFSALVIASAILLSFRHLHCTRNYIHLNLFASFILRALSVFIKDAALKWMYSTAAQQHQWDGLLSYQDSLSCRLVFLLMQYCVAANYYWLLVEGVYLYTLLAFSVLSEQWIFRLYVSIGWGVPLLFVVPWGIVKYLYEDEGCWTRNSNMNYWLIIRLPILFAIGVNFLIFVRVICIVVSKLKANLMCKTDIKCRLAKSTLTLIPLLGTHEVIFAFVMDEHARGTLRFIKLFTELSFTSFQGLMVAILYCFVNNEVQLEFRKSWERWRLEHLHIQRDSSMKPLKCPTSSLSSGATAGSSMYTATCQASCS
Description: GLP-1R-mediated agonist activity was determined with a cell-based functional assay utilizing an HTRF (Homogeneous Time-Resolved Fluorescence) cAMP detection kit (cAMP HI Range Assay Kit; CisBio cat #62AM6PEJ) that measures cAMP levels in the cell. The method is a competitive immunoassay between native cAMP produced by the cells and exogenous cAMP labeled with the dye d2. The tracer binding is visualized by a mAb anti-cAMP labeled with Cryptate. The specific signal (i.e. energy transfer) is inversely proportional to the concentration of cAMP in either standard or experimental sample.
The human GLP-1R coding sequence (NCBI Reference Sequence NP_002053.3, including naturally-occurring variant Gly168Ser) was subcloned into pcDNA3 (Invitrogen) and a cell line stably expressing the receptor was isolated (designated Clone H6).
Cells were removed from cryopreservation, re-suspended in 40 mL of Dulbecco's Phosphate Buffered Saline (DPBS—Lonza Cat #17-512Q) and centrifuged at 800×g for 5 minutes at 22° C. The cell pellet was then re-suspended in 10 mL of growth medium [DMEM/F12 1:1 Mixture with HEPES, L-Gln, 500 mL (DMEM/F12 Lonza Cat #12-719F), 10% heat inactivated fetal bovine serum (Gibco Cat #16140-071), 5 mL of 100× Pen-Strep (Gibco Cat #15140-122), 5 mL of 100×L-Glutamine (Gibco Cat #25030-081) and 500 μg/mL Geneticin (G418) (Invitrogen #10131035)]. A 1 mL sample of the cell suspension in growth media was counted on a Becton Dickinson ViCell to determine cell viability and cell count per mL. The remaining cell suspension was then adjusted with growth media to deliver 2000 viable cells per well using a Matrix Combi Multidrop reagent dispenser, and the cells were dispensed into a white 384 well tissue culture treated assay plate (Corning 3570). The assay plate was then incubated for 48 hours at 37° C. in a humidified environment in 5% carbon dioxide.
Varying concentrations of each compound to be tested (in DMSO) were diluted in assay buffer (HBSS with Calcium/Magnesium (Lonza/BioWhittaker cat #10-527F)/0.1% BSA (Sigma Aldrich cat # A7409-1L)/20 mM HEPES (Lonza/BioWhittaker cat #17-737E) containing 100 μM 3-isobutyl-1-methylxanthin (IBMX; Sigma cat #15879). The final DMSO concentration is 1%.
After 48 hours, the growth media was removed from the assay plate wells, and the cells were treated with 20 μL of the serially diluted compound in assay buffer for 30 minutes at 37° C. in a humidified environment in 5% carbon dioxide. Following the 30 minute incubation, 10 μL of labeled d2 cAMP and 10 μL of anti-cAMP antibody (both diluted 1:20 in cell lysis buffer; as described in the manufacturer's assay protocol) were added to each well of the assay plate. The plates were then incubated at room temperature and after 60 minutes, changes in the HTRF signal were read with an Envision 2104 multi-label plate reader using excitation of 330 nm and emissions of 615 and 665 nm. Raw data were converted to nM cAMP by interpolation from a cAMP standard curve (as described in the manufacturer's assay protocol) and the percent effect was determined relative to a saturating concentration of the full agonist GLP-17-36 (1 μM) included on each plate. EC50 determinations were made from agonist dose-response curves analyzed with a curve fitting program using a 4-parameter logistic dose response equation.

human GLP-1R [2] = target: human GLP-1R (Homo sapiens (Human), UniProt P43220, L260F); assay: CHO GLP-1R Clone C6 - Assay 2 (HTRF cAMP agonist assay, low receptor density); conditions: for EC50: CHO GLP-1R Clone C6 (low receptor density), cAMP HTRF, geometric mean; for Emax: read-out: Assay 2 Emax (%), CHO GLP-1R Clone C6 (low receptor density), arithmetic mean, relative to saturating GLP-1 (1 μM)
Chain of human GLP-1R (Homo sapiens (Human), UniProt P43220, L260F) (P43220 24-463 L260F): as the sequence (P43220 24-463 G168S limits assumed) above, with S145G, L237F counted along it
Description: CHO GLP-1R Clone C6—Assay 2
GLP-1R-mediated agonist activity was determined with a cell-based functional assay utilizing an HTRF (Homogeneous Time-Resolved Fluorescence) cAMP detection kit (cAMP HI Range Assay Kit; Cis Bio cat #62AM6PEJ) that measures cAMP levels in the cell. The method is a competitive immunoassay between native cAMP produced by the cells and exogenous cAMP labeled with the dye d2. The tracer binding is visualized by a mAb anti-cAMP labeled with Cryptate. The specific signal (i.e. energy transfer) is inversely proportional to the concentration of cAMP in either a standard or an experimental sample.
The human GLP-1R coding sequence (NCBI Reference Sequence NP_002053.3, including naturally-occurring variant Leu260Phe) was subcloned into pcDNA5-FRT-TO and a clonal CHO cell line stably expressing a low receptor density was isolated using the Flp-In™ T-Rex™ System, as described by the manufacturer (ThermoFisher).
Cells were removed from cryopreservation, re-suspended in 40 mL of Dulbecco's Phosphate Buffered Saline (DPBS—Lonza Cat #17-512Q) and centrifuged at 800×g for 5 minutes at 22° C. The DPBS was aspirated, and the cell pellet was re-suspended in 10 mL of complete growth medium (DMEM:F12 1:1 Mixture with HEPES, L-Gln, 500 mL (DMEM/F12 Lonza Cat #12-719F), 10% heat inactivated fetal bovine serum (Gibco Cat #16140-071), 5 mL of 100× Pen-Strep (Gibco Cat #15140-122), 5 mL of 100×L-Glutamine (Gibco Cat #25030-081), 700 μg/mL Hygromycin (Invitrogen Cat #10687010) and 15 μg/mL Blasticidin (Gibco Cat # R21001). A 1 mL sample of the cell suspension in growth media was counted on a Becton Dickinson ViCell to determine cell viability and cell count per mL. The remaining cell suspension was then adjusted with growth media to deliver 1600 viable cells per well using a Matrix Combi Multidrop reagent dispenser, and the cells were dispensed into a white 384 well tissue culture treated assay plate (Corning 3570). The assay plate was then incubated for 48 hours at 37° C. in a humidified environment (95% O2, 5% CO2)
Varying concentrations of each compound to be tested (in DMSO) were diluted in assay buffer [HBSS with Calcium/Magnesium (Lonza/BioWhittaker cat #10-527F)/0.1% BSA (Sigma Aldrich cat # A7409-1L)/20 mM HEPES (Lonza/BioWhittaker cat #17-737E)] containing 100 μM 3-isobutyl-1-methylxanthin (IBMX; Sigma cat #15879). The final DMSO concentration in the compound/assay buffer mixture is 1%.
After 48 hours, the growth media was removed from the assay plate wells, and the cells were treated with 20 μL of the serially diluted compound in assay buffer for 30 minutes at 37° C. in a humidified environment (95% O2, 5% CO2). Following the 30 minute incubation, 10 μL of labeled d2 cAMP and 10 μL of anti-cAMP antibody (both diluted 1:20 in cell lysis buffer; as described in the manufacturer's assay protocol) were added to each well of the assay plate. The plates were then incubated at room temperature and after 60 minutes, changes in the HTRF signal were read with an Envision 2104 multi-label plate reader using excitation of 330 nm and emissions of 615 and 665 nm. Raw data were converted to nM cAMP by interpolation from a cAMP standard curve (as described in the manufacturer's assay protocol) and the percent effect was determined relative to a saturating concentration of the full agonist GLP-1 (1 μM) included on each plate. EC50 determinations were made from agonist dose response curves analyzed with a curve fitting program using a 4-parameter logistic dose response equation.

| Structure (SMILES) | EC50 (human GLP-1R [1]) [nM] | Emax (human GLP-1R [1]) [%] | EC50 (human GLP-1R [2]; read-out: Assay 2 EC50) [nM] | Emax (human GLP-1R [2]) [%] | EC50 (human GLP-1R [2]; Assay 2 EC50 (nM)) [nM] |
| --- | --- | --- | --- | --- | --- |
| CC1(c2ccc(Cl)cc2F)Oc2cccc(C3CCN(Cc4nc5ccc(C(=O)O)cc5n4Cc4ccccn4)CC3)c2O1 (stereo not drawn) [Example 45, 2-({4-[2-(4-chloro-2-fluorophenyl)-2-methyl-1,3-benzodioxol-4-yl]piperidin-1-yl}methyl)-1-(pyridin-2-ylmethyl)-1H-benzimidazole-6-carboxylic acid] | 9.9 | 81 | 220 | 79 | – |
| CC1(c2ccc(Cl)cc2F)Oc2cccc(C3CCN(Cc4nc5ccc(C(=O)O)cc5n4CCN4CCOC4=O)CC3)c2O1 (stereo not drawn) [Example 46, 2-({4-[2-(4-chloro-2-fluorophenyl)-2-methyl-1,3-benzodioxol-4-yl]piperidin-1-yl}methyl)-1-[2-(2-oxo-1,3-oxazolidin-3-yl)ethyl]-1H-benzimidazole-6-carboxylic acid] | 5.2 | 95 | 57 | 96 | – |
| CC1(c2ccc(Cl)cc2F)Oc2cccc(C3CCN(Cc4nc5ccc(C(=O)O)cc5n4CCN4CCCC4=O)CC3)c2O1 (stereo not drawn) [Example 48, 2-({4-[2-(4-chloro-2-fluorophenyl)-2-methyl-1,3-benzodioxol-4-yl]piperidin-1-yl}methyl)-1-[2-(2-oxopyrrolidin-1-yl)ethyl]-1H-benzimidazole-6-carboxylic acid] | 14 | 81 | 280 | 73 | – |
| CC1(c2ccc(Cl)cc2F)Oc2cccc(C3CCN(Cc4nc5ccc(C(=O)O)cc5n4CCn4ccnc4)CC3)c2O1 (stereo not drawn) [Example 50, 2-({4-[2-(4-chloro-2-fluorophenyl)-2-methyl-1,3-benzodioxol-4-yl]piperidin-1-yl}methyl)-1-[2-(1H-imidazol-1-yl)ethyl]-1H-benzimidazole-6-carboxylic acid] | 12 | 87 | 140 | 92 | – |
| CCn1ccnc1Cn1c(CN2CCC(c3cccc4c3OC(C)(c3ccc(Cl)cc3F)O4)CC2)nc2ccc(C(=O)O)cc21 (stereo not drawn) [Example 51, 2-({4-[2-(4-chloro-2-fluorophenyl)-2-methyl-1,3-benzodioxol-4-yl]piperidin-1-yl}methyl)-1-[(1-ethyl-1H-imidazol-2-yl)methyl]-1H-benzimidazole-6-carboxylic acid] | 19 | 80 | 280 | 81 | – |
| CNC(=O)Cn1c(CN2CCC(c3cccc4c3OC(C)(c3ccc(Cl)cc3F)O4)CC2)nc2ccc(C(=O)O)cc21 (stereo not drawn) [Example 52, 2-({4-[2-(4-chloro-2-fluorophenyl)-2-methyl-1,3-benzodioxol-4-yl]piperidin-1-yl}methyl)-1-[2-(methylamino)-2-oxoethyl]-1H-benzimidazole-6-carboxylic acid] | 32 | 85 | 570 | 80 | – |
| CC1(c2ccc(Cl)cc2F)Oc2cccc(C3CCN(Cc4nc5ccc(C(=O)O)cc5n4CCCn4cncn4)CC3)c2O1 (stereo not drawn) [Example 54, 2-({4-[2-(4-chloro-2-fluorophenyl)-2-methyl-1,3-benzodioxol-4-yl]piperidin-1-yl}methyl)-1-[3-(1H-1,2,4-triazol-1-yl)propyl]-1H-benzimidazole-6-carboxylic acid] | 18 | 82 | 160 | 64 | – |
| Cn1cnc(CCn2c(CN3CCC(c4cccc5c4OC(C)(c4ccc(Cl)cc4F)O5)CC3)nc3ccc(C(=O)O)cc32)c1 (stereo not drawn) [Example 55, 2-({4-[2-(4-chloro-2-fluorophenyl)-2-methyl-1,3-benzodioxol-4-yl]piperidin-1-yl}methyl)-1-[2-(1-methyl-1H-imidazol-4-yl)ethyl]-1H-benzimidazole-6-carboxylic acid] | 74 | 81 | 1100 | 50 | – |
| CC1(c2ccc(Cl)cc2F)Oc2cccc(C3CCN(Cc4nc5ccc(C(=O)O)cc5n4CC4CCOC4)CC3)c2O1 (stereo not drawn) [Example 56, 2-({4-[2-(4-chloro-2-fluorophenyl)-2-methyl-1,3-benzodioxol-4-yl]piperidin-1-yl}methyl)-1-(tetrahydrofuran-3-ylmethyl)-1H-benzimidazole-6-carboxylic acid] | 1.2 | 87 | 11 | 81 | – |
| Cn1ncnc1Cn1c(CN2CCC(c3cccc4c3OC(C)(c3ccc(Cl)cc3F)O4)CC2)nc2ccc(C(=O)O)cc21 (stereo not drawn) [Example 57, 2-({4-[2-(4-chloro-2-fluorophenyl)-2-methyl-1,3-benzodioxol-4-yl]piperidin-1-yl}methyl)-1-[(1-methyl-1H-1,2,4-triazol-5-yl)methyl]-1H-benzimidazole-6-carboxylic acid] | 15 | 86 | 500 | 98 | – |

Now from value to compound:

| EC50 (human GLP-1R [1]) [nM] | Emax (human GLP-1R [1]) [%] | EC50 (human GLP-1R [2]; read-out: Assay 2 EC50) [nM] | Emax (human GLP-1R [2]) [%] | EC50 (human GLP-1R [2]; Assay 2 EC50 (nM)) [nM] | Structure (SMILES) |
| --- | --- | --- | --- | --- | --- |
| 2.6 | 85 | 100 | 86 | – | COCCn1c(CN2CCC(c3cccc4c3OC(C)(c3ccc(Cl)cc3)O4)CC2)nc2ccc(C(=O)O)cc21 (stereo not drawn) [Example 33, 2-({4-[2-(4-chlorophenyl)-2-methyl-1,3-benzodioxol-4-yl]piperidin-1-yl}methyl)-1-(2-methoxyethyl)-1H-benzimidazole-6-carboxylic acid] |
| 7.8 | 98 | 110 | 88 | – | COCCn1c(CN2CCC(c3cccc4c3OC(C)(c3ccc(C#N)cc3)O4)CC2)nc2ccc(C(=O)O)cc21 (stereo not drawn) [Example 34, 2-({4-[2-(4-cyanophenyl)-2-methyl-1,3-benzodioxol-4-yl]piperidin-1-yl}methyl)-1-(2-methoxyethyl)-1H-benzimidazole-6-carboxylic acid] |
| 6.6 | 86 | 170 | 89 | – | COCCn1c(CN2CCC(c3cccc4c3OC(C)(c3ccc(OC)cc3F)O4)CC2)nc2ccc(C(=O)O)cc21 (stereo not drawn) [Example 35, 2-({4-[2-(2-fluoro-4-methoxyphenyl)-2-methyl-1,3-benzodioxol-4-yl]piperidin-1-yl}methyl)-1-(2-methoxyethyl)-1H-benzimidazole-6-carboxylic acid] |
| 81 | 100 | 1000 | 83 | – | COCCn1c(CN2CCC(c3cccc4c3OC(C)(c3ccccc3OC)O4)CC2)nc2ccc(C(=O)O)cc21 (stereo not drawn) [Example 37, 1-(2-methoxyethyl)-2-({4-[2-(2-methoxyphenyl)-2-methyl-1,3-benzodioxol-4-yl]piperidin-1-yl}methyl)-1H-benzimidazole-6-carboxylic acid] |
| 10 | 87 | 240 | 73 | – | COCCn1c(CN2CCC(c3cccc4c3OC(C)(c3ccc(F)cc3)O4)CC2)nc2ccc(C(=O)O)cc21 (stereo not drawn) [Example 38, 2-({4-[2-(4-fluorophenyl)-2-methyl-1,3-benzodioxol-4-yl]piperidin-1-yl}methyl)-1-(2-methoxyethyl)-1H-benzimidazole-6-carboxylic acid] |
| 14 | 88 | 130 | 73 | – | COCCn1c(CN2CCC(c3cccc4c3OC(C)(c3ccc(C(F)(F)F)cc3)O4)CC2)nc2ccc(C(=O)O)cc21 (stereo not drawn) [Example 40, 1-(2-methoxyethyl)-2-[(4-{2-methyl-2-[4-(trifluoromethyl)phenyl]-1,3-benzodioxol-4-yl}piperidin-1-yl)methyl]-1H-benzimidazole-6-carboxylic acid] |
| 91 | 78 | – | 74 | 2000 | COCCn1c(CN2CCC(c3cccc4c3OC(C)(c3ccc(F)c(F)c3)O4)CC2)nc2ccc(C(=O)O)cc21 (stereo not drawn) [Example 41, 2-({4-[2-(3,4-difluorophenyl)-2-methyl-1,3-benzodioxol-4-yl]piperidin-1-yl}methyl)-1-(2-methoxyethyl)-1H-benzimidazole-6-carboxylic acid] |
| 120 | 93 | 1700 | 83 | – | COCCn1c(CN2CCC(c3cccc4c3OC(C)(c3ccc(C)nc3)O4)CC2)nc2ccc(C(=O)O)cc21 (stereo not drawn) [Example 42, 1-(2-methoxyethyl)-2-({4-[2-methyl-2-(6-methylpyridin-3-yl)-1,3-benzodioxol-4-yl]piperidin-1-yl}methyl)-1H-benzimidazole-6-carboxylic acid] |
| 3.5 | 88 | 65 | 86 | – | CC(=O)N(C)CCn1c(CN2CCC(c3cccc4c3OC(C)(c3ccc(Cl)cc3F)O4)CC2)nc2ccc(C(=O)O)cc21 (stereo not drawn) [Example 43, 1-{2-[acetyl(methyl)amino]ethyl}-2-({4-[2-(4-chloro-2-fluorophenyl)-2-methyl-1,3-benzodioxol-4-yl]piperidin-1-yl}methyl)-1H-benzimidazole-6-carboxylic acid] |
| 42 | 75 | 1400 | 76 | – | CN(C)S(=O)(=O)CCn1c(CN2CCC(c3cccc4c3OC(C)(c3ccc(Cl)cc3F)O4)CC2)nc2ccc(C(=O)O)cc21 (stereo not drawn) [Example 47, 2-({4-[2-(4-chloro-2-fluorophenyl)-2-methyl-1,3-benzodioxol-4-yl]piperidin-1-yl}methyl)-1-[2-(dimethylsulfamoyl)ethyl]-1H-benzimidazole-6-carboxylic acid] |
| 3.1 | 87 | 52 | 84 | – | CC1(c2ccc(Cl)cc2F)Oc2cccc(C3CCN(Cc4nc5ccc(C(=O)O)cc5n4CCn4cccn4)CC3)c2O1 (stereo not drawn) [Example 53, 2-({4-[2-(4-chloro-2-fluorophenyl)-2-methyl-1,3-benzodioxol-4-yl]piperidin-1-yl}methyl)-1-[2-(1H-pyrazol-1-yl)ethyl]-1H-benzimidazole-6-carboxylic acid] |
